Measurements reported in publication PMC9583330, “Quinazoline-4(3H)-one-7-carboxamide Derivatives as Human Soluble Epoxide Hydrolase Inhibitors with Developable 5-Lipoxygenase Activating Protein Inhibition” (ACS Omega, 2022).
Where two headings read alike, the source gives them in different places.

Legend:
Human recombinant sEH [1] = target: T1, Human recombinant sEH (Homo sapiens, UniProt P34913); design: method as in PMID 32045233; details: previously identified compound; cited from earlier work
T1 construct: made in house; host or cells: Sf9 insect cells, recombinant baculovirus from Dr. B. Hammock
T1 sequence (P34913 1-555): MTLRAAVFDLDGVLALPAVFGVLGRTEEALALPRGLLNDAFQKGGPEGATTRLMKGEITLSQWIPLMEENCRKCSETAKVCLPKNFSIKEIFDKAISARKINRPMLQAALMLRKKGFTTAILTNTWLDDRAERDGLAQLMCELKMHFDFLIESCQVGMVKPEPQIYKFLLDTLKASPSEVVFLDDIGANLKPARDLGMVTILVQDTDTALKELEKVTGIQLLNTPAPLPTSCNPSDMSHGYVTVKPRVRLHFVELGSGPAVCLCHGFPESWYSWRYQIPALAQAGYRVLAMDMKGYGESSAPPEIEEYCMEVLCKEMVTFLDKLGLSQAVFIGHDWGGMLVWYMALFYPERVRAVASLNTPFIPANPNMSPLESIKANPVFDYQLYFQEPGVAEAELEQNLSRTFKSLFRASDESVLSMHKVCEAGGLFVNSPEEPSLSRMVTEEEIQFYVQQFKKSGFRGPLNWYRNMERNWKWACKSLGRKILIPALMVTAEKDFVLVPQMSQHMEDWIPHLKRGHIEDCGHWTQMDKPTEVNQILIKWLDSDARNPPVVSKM

[2] = system: FLAP-mediated cellular LT formation in human neutrophils; design: method as in PMID 32045233; details: previously identified; read-out: IC50, inhibition of cellular leukotriene (LT) biosynthesis by targeting FLAP; cited from earlier work
Human recombinant sEH [3] = target: T1, Human recombinant sEH; assay: sEH cell-free fluorescence-based assay (PHOME substrate); assay type: biochemical; details: means ± SEM, n = 3; for IC50: cell-free assay, human sEH; for remaining activity at 10 µM: residual activity at 10 μM, control = vehicle 100%
Experimental: Human recombinant sEH was expressed and purified as reported before.[46] In brief, Sf9 cells were infected with a recombinant baculovirus (kindly provided by Dr. B. Hammock, University of California, Davis, CA). Seventy-two hours post-transfection, cells were pelleted and sonicated (3 × 10 s at 4 °C) in lysis buffer containing NaHPO4 (50 mM, pH 8), NaCl (300 mM), glycerol (10%), EDTA (1 mM), phenylmethanesulfonyl fluoride (1 mM), leupeptin (10 μg/mL), and a soybean trypsin inhibitor (60 μg/mL). Supernatants after centrifugation at 100,000 × g (60 min, 4 °C) were subjected to benzylthio-sepharose-affinity chromatography in order to purify sEH by elution with 4-fluorochalcone oxide in PBS containing 1 mM DTT and 1 mM EDTA. Dialyzed and concentrated (Millipore Amicon-Ultra-15 centrifugal filter) enzyme solution was assayed for total protein with a Bio-Rad protein detection kit (Bio-Rad Laboratories, Munich, Germany), and the epoxide hydrolase activity was determined by using a fluorescence-based assay as described before.[47] Shortly, sEH was diluted in Tris buffer (25 mM, pH 7) supplemented with BSA (0.1 mg/mL) to an appropriate enzyme concentration and preincubated with test compounds or vehicle (0.1% DMSO) for 10 min at room temperature (RT). The reaction was started by the addition of 50 μM 3-phenyl-cyano(6-methoxy-2-naphthalenyl)methyl ester-2-oxiraneacetic acid (PHOME), a nonfluorescent compound that is enzymatically converted into fluorescent 6-methoxy-naphtaldehyde at RT. After 60 min, reactions were stopped by ZnSO4 (200 mM) and fluorescence was detected (λem 465 nm, λex 330 nm) using a NOVOstar microplate reader (BMG Labtech GmbH, Ortenberg, Germany), and potential fluorescence of test compounds was subtracted from the read-out, if required.

[4] = system: FLAP-mediated cellular LT formation in human neutrophils; assay: FLAP-dependent 5-LO product formation in intact neutrophils; assay type: cell-based; details: Neutrophil; for IC50: Homo sapiens, intact neutrophils challenged with 2.5 μM ionophore plus 20 μM arachidonic acid; for activity at 1 µM: 1 μM inhibitor, read-out: 5-LO product formation in neutrophils, remaining activity (% of control) at 1 μM; for activity at 1 µM / activity at 10 µM: human neutrophils, 2.5 μM Ca2+-ionophore A23187, means ± SEM, n = 4–5; for activity at 10 µM: 10 μM inhibitor, read-out: 5-LO product formation in neutrophils, remaining activity (% of control) at 10 μM
Experimental: Neutrophils were isolated from leukocyte concentrates obtained from freshly withdrawn peripheral blood of healthy adult male and female donors which were provided by the Institute of Transfusion Medicine, University Hospital Jena, Germany. The experimental protocol was approved by the ethical committee of the University Hospital Jena, and all methods were performed in accordance with the relevant guidelines and regulations. The leukocyte concentrates were mixed with dextran (from Leuconostoc spp. MW ∼40,000, Sigma Aldrich) for sedimentation of erythrocytes, and the supernatant was centrifuged on lymphocyte separation medium (Histopaque-1077, Sigma Aldrich). Contaminating erythrocytes in the pelleted neutrophils were removed by hypotonic lysis using distilled water. The neutrophils were washed twice in ice-cold PBS pH 7.4 and finally resuspended in PBS pH 7.4 plus 1 mg/mL glucose (PGC buffer).
Human neutrophils [5 × 10^6; in PGC buffer; incubation volume, 1 mL] were preincubated with 0.1% DMSO (vehicle) or with the compounds at 37 °C for 15 min. […] Samples were then subjected to solid-phase extraction on C18-columns (100 mg, UCT, Bristol, PA), and 5-LO products (LTB4 and its trans-isomers, and 5-H(p)ETE) were extracted and analyzed in the presence of internal standard PGB1 by RP-HPLC and UV detection as reported elsewhere.[45]

## O=C(O)c1ccc2c(=O)n(Cc3ccccc3)c(SCc3ccc(Cl)c(Cl)c3)nc2c1 [Compound 5]
Human recombinant sEH [1]
  activity against sEH (in words): without any activity against sEH
[2]
  IC50: 870 nM

## CC(C)(C)CNC(=O)c1ccc2c(=O)[nH]c(SCc3ccc(Cl)c(Cl)c3)nc2c1 [Compound 38, 2-((3,4-Dichlorobenzyl)thio)-N-neopentyl-4-oxo-3,4-dihydroquinazoline-7-carboxamide]
Human recombinant sEH [3]
  IC50: 1600 ± 100 nM
[4]
  IC50: < 10000 nM
  activity at 1 µM: 105 ± 3.1%
  activity at 10 µM: 34.9 ± 10.6%
other
  melting point: 215.5 to 216.9 °C

## CC(C)NC(=O)c1ccc2c(=O)[nH]c(SCc3ccccc3Cl)nc2c1 [Compound 45, 2-((2-Chlorobenzyl)thio)-N-isopropyl-4-oxo-3,4-dihydroquinazoline-7-carboxamide]
Human recombinant sEH [3]
  IC50: > 10000 nM
  remaining activity at 10 µM: 71%
[4]
  IC50: > 10000 nM
  activity at 1 µM: 96.6 ± 6.7%
  activity at 10 µM: 70.3 ± 21.4%
other
  melting point: 306.3 °C (dec.)

## CC(C)(C)CNC(=O)c1ccc2c(=O)[nH]c(NCc3ccccc3Cl)nc2c1 [Compound 55, 2-((2-Chlorobenzyl)amino)-N-neopentyl-4-oxo-3,4-dihydroquinazoline-7-carboxamide]
Human recombinant sEH [3]
  IC50: > 10000 nM
  remaining activity at 10 µM: 68%
[4]
  IC50: 2700 ± 800 nM
  activity at 1 µM: 77.9 ± 12.1%
  activity at 10 µM: 8.9 ± 3.6%
other
  melting point: 176.7 to 178.7 °C
